Where “and” joins values, the source holds several entries; their conditions need not be identical. Equal values may be shown once.
What was measured:
[1] = tested on: Growth Hormone release; assay: In Vitro Release of Growth Hormone in Rat; type: cell-based
Description: (§1) In vitro and in vivo activity of certain compounds were determined in rats and adult beagle dogs (in vivo activity only).

[2] = tested on: Growth Hormone release; assay: In Vivo GH Release in Rats (i.v., serum GH by RIA); set-up: species or system Sprague-Dawley rats; conditions: i.v., serum 10 min after injection
Description: Immature female Sprague-Dawley rats were obtained from the Charles River Laboratories (Wilmington, Mass.). After arrival they were housed at 25° C. with a 14:10 hour light:dark cycle. Water and Purina rat chow were available ad libitum. Pups were kept with their mothers until 21 days of age.
Twenty-six day old rats, six rats per treatment group, were anesthetized interperitoneally with 50 mg/kg of pentobarbital 20 minutes prior to i.v. treatment with peptide. Normal saline with 0.1% gelatin was the vehicle for intravenous (i.v.) injections of the peptides. The anesthetized rats, weighing 55-65 grams, were injected i.v. with the quantity of grown hormone releasing compounds indicated in Table 3. Injection was made as a 0.1 mL solution into the jugular vein.
All animals were sacrificed by guillotine 10 minutes after final test injection (see Table 3). Trunk blood for the determination of blood GH levels was collected following decapitation. After allowing the blood to clot, it was centrifuged and the serum was separated from the clot. Serum was kept frozen until the day of sampling for radioimmunoassay (RIA) determination of growth hormone levels according to the following procedure, as developed by the National Institute of Arthritis, Diabetes and Digestive and Kidney Diseases (NIADDK).
Reagents are generally added to the RIA analysis tubes at a single sitting, at refrigerator temperature (about 4° C.) in the following sequence: • (a) buffer, • (b) “cold” (i.e., non-radioactive) standard or unknown serum sample to be analyzed, • (c) radio-iodinated growth hormone antigen, and • (d) growth hormone antiserum.
Reagent addition is generally carried out so that there is achieved a final RIA tube dilution of about 1:30,000 (antiserum to total liquid volume; vol:vol).
The mixed reagents are then typically incubated at room temperature (about 25° C.) for about 24 hours prior to addition of a second antibody (e.g., goat or rabbit anti-monkey gamma globulin serum) which binds to and causes precipitation of the complexed growth hormone antiserum. Precipitated contents of the RIA tubes are then analyzed for the number of counts in a specified period of time in a gamma scintillation counter. A standard curve is prepared by plotting number of radioactive counts versus growth hormone (GH) level. GH levels of unknown are then determined by reference to the standard curve.
Serum GH was measured by RIA with reagents provided by the National Hormone and Pituitary Program.
Serum levels in Tables 3 and 4 are recorded in ng/mL in terms of the rat GH standard of 0.61 International Units/mg (IU/mg). Data is recorded as the mean ±standard error of the mean (SEM). Statistical analysis was performed with Student's t-test. In Table 3, the results shown are the average of studies with six rats.

[3] = tested on: Growth Hormone release; assay: In Vivo Release of Growth Hormone in Adult Beagle Dogs; set-up: unit not given here
Description: as §1

[4] = compound at 1 (dose unit not given)
[5] = compound at .01 (dose unit not given)
[6] = compound at .1 (dose unit not given)
[7] = compound at .3 (dose unit not given)
[8] = compound at 3 (dose unit not given)

Aib-DTrp-DPro-diisobutylamide
In Vitro Release of Growth Hormone in Rat, GH [1, 4]: 1124 ng/mL | In Vitro Release of Growth Hormone in Rat, GH [1, 5]: 1322 ng/mL | In Vitro Release of Growth Hormone in Rat, GH ([1]; compound at .03 (dose unit not given)): 1529 ng/mL | In Vitro Release of Growth Hormone in Rat, GH [1, 6]: 1427 ng/mL | In Vitro Release of Growth Hormone in Rat, GH [1, 7]: 1155 ng/mL | In Vivo Release of Growth Hormone in Rat, GH [2, 4]: 642 ng/mL | In Vivo Release of Growth Hormone in Rat, GH [2, 8]: 1524 ng/mL | In Vivo Release of Growth Hormone in Rat, GH ([2]; compound at 10 (dose unit not given)): 1837 ng/mL | In Vivo Release of Growth Hormone in Rat, GH ([2]; compound at 30 (dose unit not given)): 2307 ng/mL | In Vivo Release of Growth Hormone in Rat, GH ([2]; compound at 100 (dose unit not given)): 2913 ng/mL | In Vivo Release of Growth Hormone in Adult Beagle Dogs ([3]; oral dose 1 mg/kg, time 0.5 hr, listed as DPo-diisobutylamide, 1 mg/kg): 85 and 128 and 89 | In Vivo Release of Growth Hormone in Adult Beagle Dogs ([3]; oral dose 1 mg/kg, time 1 hr, listed as DPo-diisobutylamide, 1 mg/kg): 30 and 50 and 59 | In Vivo Release of Growth Hormone in Adult Beagle Dogs ([3]; oral dose 1 mg/kg, time 2 hr, listed as DPo-diisobutylamide, 1 mg/kg): 16 and 24 and 30 | In Vivo Release of Growth Hormone in Adult Beagle Dogs ([3]; oral dose 1 mg/kg, time 4 hr, listed as DPo-diisobutylamide, 1 mg/kg): 6 and 5.6 and 7 | In Vivo Release of Growth Hormone in Adult Beagle Dogs ([3]; oral dose 1 mg/kg, time 7 hr, listed as DPo-diisobutylamide, 1 mg/kg): 2.5 and 2.2 and 3.7 | In Vivo Release of Growth Hormone in Adult Beagle Dogs ([3]; oral dose 2 mg/kg, time 0.5 hr): 54 | In Vivo Release of Growth Hormone in Adult Beagle Dogs ([3]; oral dose 2 mg/kg, time 1 hr): 30 | In Vivo Release of Growth Hormone in Adult Beagle Dogs ([3]; oral dose 2 mg/kg, time 2 hr): 22 | In Vivo Release of Growth Hormone in Adult Beagle Dogs ([3]; oral dose 2 mg/kg, time 3 hr): 15 | In Vivo Release of Growth Hormone in Adult Beagle Dogs ([3]; oral dose 2 mg/kg, time 4 hr): 7 | In Vivo Release of Growth Hormone in Adult Beagle Dogs ([3]; oral dose 2 mg/kg, time 5 hr): 4.6 | In Vivo Release of Growth Hormone in Adult Beagle Dogs ([3]; oral dose 2 mg/kg, time 6 hr): 4.8 | In Vivo Release of Growth Hormone in Adult Beagle Dogs ([3]; oral dose 2 mg/kg, time 8 hr): 1.8 | In Vivo Release of Growth Hormone in Adult Beagle Dogs ([3]; oral dose 4 mg/kg, time 0 hr, listed as DPo-diisobutylamide, 4 mg/kg): 1.4 and 0.8 | In Vivo Release of Growth Hormone in Adult Beagle Dogs ([3]; oral dose 4 mg/kg, time 3 hr, listed as DPo-diisobutylamide, 4 mg/kg): 15 and 22 | In Vivo Release of Growth Hormone in Adult Beagle Dogs ([3]; oral dose 4 mg/kg, time 7 hr, listed as DPo-diisobutylamide, 4 mg/kg): 6.9

Aib-DTrp-DTrp-Phe-Arg-5-aminopentylamide [DTrpPhe-Arg-5-amino pentamide]
In Vitro Release of Growth Hormone in Rat, GH ([1]; compound at .0001 (dose unit not given)): 1228 ng/mL | In Vitro Release of Growth Hormone in Rat, GH ([1]; compound at .0003 (dose unit not given)): 1416 ng/mL | In Vitro Release of Growth Hormone in Rat, GH ([1]; compound at .001 (dose unit not given)): 1712 ng/mL | In Vitro Release of Growth Hormone in Rat, GH ([1]; compound at .003 (dose unit not given)): 1648 ng/mL | In Vitro Release of Growth Hormone in Rat, GH [1, 5]: 1621 ng/mL | In Vivo Release of Growth Hormone in Rat, GH [2, 4]: 2272 ng/mL | In Vivo Release of Growth Hormone in Rat, GH [2, 8]: 2929 ng/mL | In Vivo Release of Growth Hormone in Rat, GH [2, 6]: 262 ng/mL | In Vivo Release of Growth Hormone in Rat, GH [2, 7]: 274 ng/mL | In Vivo Release of Growth Hormone in Adult Beagle Dogs ([3]; oral dose 1 mg/kg, time 0 hr): 2.5 | In Vivo Release of Growth Hormone in Adult Beagle Dogs ([3]; oral dose 1 mg/kg, time 0.5 hr): 38 | In Vivo Release of Growth Hormone in Adult Beagle Dogs ([3]; oral dose 1 mg/kg, time 1 hr): 8.5 | In Vivo Release of Growth Hormone in Adult Beagle Dogs ([3]; oral dose 1 mg/kg, time 2 hr): 2.8 | In Vivo Release of Growth Hormone in Adult Beagle Dogs ([3]; oral dose 1 mg/kg, time 3 hr): 2.3 | In Vivo Release of Growth Hormone in Adult Beagle Dogs ([3]; oral dose 1 mg/kg, time 4 hr): 1.4 | In Vivo Release of Growth Hormone in Adult Beagle Dogs ([3]; oral dose 1 mg/kg, time 5 hr): 1.7 | In Vivo Release of Growth Hormone in Adult Beagle Dogs ([3]; oral dose 1 mg/kg, time 6 hr): 2.1 | In Vivo Release of Growth Hormone in Adult Beagle Dogs ([3]; oral dose 1 mg/kg, time 7 hr): 2 | In Vivo Release of Growth Hormone in Adult Beagle Dogs ([3]; oral dose 1 mg/kg, time 8 hr): 0.8 | In Vivo Release of Growth Hormone in Adult Beagle Dogs ([3]; oral dose 2 mg/kg, time 0 hr): 3.1 | In Vivo Release of Growth Hormone in Adult Beagle Dogs ([3]; oral dose 2 mg/kg, time 0.5 hr): 83 | In Vivo Release of Growth Hormone in Adult Beagle Dogs ([3]; oral dose 2 mg/kg, time 1 hr): 20 | In Vivo Release of Growth Hormone in Adult Beagle Dogs ([3]; oral dose 2 mg/kg, time 2 hr): 6.8 | In Vivo Release of Growth Hormone in Adult Beagle Dogs ([3]; oral dose 2 mg/kg, time 3 hr): 3.9 | In Vivo Release of Growth Hormone in Adult Beagle Dogs ([3]; oral dose 2 mg/kg, time 4 hr): 2.9 | In Vivo Release of Growth Hormone in Adult Beagle Dogs ([3]; oral dose 2 mg/kg, time 5 hr): 3.3 | In Vivo Release of Growth Hormone in Adult Beagle Dogs ([3]; oral dose 2 mg/kg, time 6 hr): 3.1 | In Vivo Release of Growth Hormone in Adult Beagle Dogs ([3]; oral dose 2 mg/kg, time 7 hr): 3.3 | In Vivo Release of Growth Hormone in Adult Beagle Dogs ([3]; oral dose 2 mg/kg, time 8 hr): 3
